Data as given in patent US20240067693A1, “POLYPEPTIDES AND USES THEREOF” (MEDIMMUNE LIMITED, priority 2020, published 2024).
Numbered stars: 1 amine (or outer) side, 2 acyl side, 3 side chain; on linkers, the order of the positions; unused ones are H or OH. Bridge positions count the residues as written; N and C are the ends. Square brackets hold non-standard residues; d marks the D form. Side chains are listed from the residue outwards. Peptide text beside a SMILES is read from it. * marks the point of attachment. C18 diacid = O=C(O)CCCCCCCCCCCCCCCCC(=O)*; γGlu = O=C(O)[C@H](CCC(=O)[*:2])N[*:1]; Dab = NCC[C@H](N)C(=O)O; Aib = CC(C)(N)C(=O)O

Tests used:
[1] = biological target: T1, human amylin receptor (calcitonin receptor co-expressed with receptor activity modifying protein, RAMP3) (hAMYR3) (Homo sapiens, UniProt O60896+P30988); assay: cAMP production in 1321N1 cells with stable recombinant expression of human amylin receptor (hAMYR3); format: cell-based; settings: for Ratio (selectivity hAMYR vs hCTR, ratio of EC50 values at the two receptors): EC50 hCTR / EC50 hAMYR3; for EC50: cAMP, 1321N1 cells, assay buffer with 0.1% BSA, read-out: EC50 (pM) hAMYR3
T1 construct: expressed in transfected cells
T1 sequence (P30988 25-474): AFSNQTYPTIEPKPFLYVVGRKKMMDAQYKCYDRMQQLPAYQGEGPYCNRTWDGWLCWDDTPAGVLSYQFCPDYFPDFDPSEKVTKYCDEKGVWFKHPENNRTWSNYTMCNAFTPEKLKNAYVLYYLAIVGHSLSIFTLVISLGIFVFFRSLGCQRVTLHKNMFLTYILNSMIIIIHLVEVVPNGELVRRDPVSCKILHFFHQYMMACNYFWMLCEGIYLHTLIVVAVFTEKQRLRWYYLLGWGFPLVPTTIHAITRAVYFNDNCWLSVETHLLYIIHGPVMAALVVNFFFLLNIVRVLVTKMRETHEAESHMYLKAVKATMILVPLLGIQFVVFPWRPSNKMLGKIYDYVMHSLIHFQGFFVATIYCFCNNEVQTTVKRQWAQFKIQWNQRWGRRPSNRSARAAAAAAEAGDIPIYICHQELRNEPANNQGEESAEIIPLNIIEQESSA
T1 sequence (O60896 24-148 partner): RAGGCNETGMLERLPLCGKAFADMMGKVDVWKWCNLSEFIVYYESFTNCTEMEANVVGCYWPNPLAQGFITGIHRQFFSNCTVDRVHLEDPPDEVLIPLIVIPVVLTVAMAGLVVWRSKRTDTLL
Summary of the method: (§1)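 Receptor-expressing cells (human receptors in 1321N1, rat receptors in HEK) incubated 30 min at room temperature with peptide in HBSS/HEPES pH 7.4, 0.1% BSA, 0.5 mM IBMX. cAMP read by HTRF; EC50 from 4-parameter fit as % of maximal amylin or calcitonin response.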

[2] = biological target: T2, human calcitonin receptor (hCTR) (Homo sapiens, UniProt P30988); assay: cAMP production in 1321N1 cells with stable recombinant expression of human calcitonin receptor (hCTR); format: cell-based; settings: cAMP, 1321N1 cells, assay buffer with 0.1% BSA; read-out: EC50 (pM) hCTR
T2 construct: expressed in transfected cells
T2 sequence (P30988 25-474): T1 sequence (P30988 25-474)
Summary of the method: as §1

[3] = Thioflavin T fibrillation assay; format: physicochemical; settings: ThT fibrillation assay; peptide 1 mg/mL in 25 mM sodium acetate buffer pH 4.0; 6 days at 37 °C with shaking; >144 h = no increase
Source text: Peptide aggregation that form fibrils is an indication of physical instability. Fibril formation in solution poses a significant risk for the stability of injectable peptide drug products. Thioflavin T (ThT) fibrillation assay is a useful tool to assess the aggregation kinetics of a peptide or protein under accelerated and stressed conditions that can be used to forecast the long-term viability of a compound in solution. ThT can selectively bind amyloid fibrils and the resultant complex emits strong fluorescence signal at 482 nm when excited at 450 nm (Anal Biochem. 1989 Mar;177(2):244-9). Monitoring of the change in fluorescence signal is an established method to study the fibril forming potential of peptides and proteins. ThT (purchased from Sigma Aldrich) stock solution is prepared by dissolving the ThT powder in Milli-Q water and filtered to obtain a 0.25 mM solution. The concentration of the solution is measured at 412 nm using an extinction coefficient of 36 mM^−1cm^−1. Test peptides were dissolved at 1 mg/mL in 25 mM sodium acetate buffer pH 4.0. 100 μL aliquot of peptide solution and 5 μL aliquot of ThT solution were placed in a clear bottom black fluorescence 96-well plate. 5 replicates of each test samples were placed in zo the same row of the plate. Buffer was placed in control wells for baseline correction. All empty wells were filled with water to prevent evaporation. The plate was sealed with aluminium seal and placed in fluorescence plate reader and incubated for 6 days at 37 ° C. with intermittent orbital shaking at 500 to 750 rpm. The fluorescence intensity was measured every 30 min using excitation at 444 nm and emission at 480 nm. The fibril forming potential of the test peptides was determined by measuring the average time taken to detect an increase in baseline corrected fluorescence intensity.

Structure (SMILES)	Ratio (selectivity hAMYR vs hCTR, ratio of EC50 values at the two receptors) [1]	EC50 [1] [pM]	EC50 [2] [pM]	Time taken to detect increase in fluorescence intensity [3] [h]
CC[C@H](C)[C@H](NC(=O)[C@@H]1CCCN1C(=O)CNC(=O)[C@H](Cc1ccccc1)NC(=O)[C@H](CC(N)=O)NC(=O)[C@H](CC(N)=O)NC(=O)[C@H](CO)NC(=O)[C@H](CO)NC(=O)[C@H](Cc1c[nH]cn1)NC(=O)[C@@H](NC(=O)[C@H](CC(C)C)NC(=O)[C@H](Cc1ccccc1)NC(=O)[C@H](CCN)NC(=O)[C@H](C)NC(=O)[C@H](CC(C)C)NC(=O)[C@H](CCCNC(=N)N)NC(=O)[C@H](CCC(N)=O)NC(=O)[C@@H](NC(=O)[C@H](C)NC(=O)[C@@H]1CSSC[C@H](NC(=O)[C@H](CCCCN)NC(=O)[C@@H](N)CCCCNC(=O)CC[C@H](NC(=O)CCCCCCCCCCCCCCCCC(=O)O)C(=O)O)C(=O)N[C@@H](CC(N)=O)C(=O)N[C@@H]([C@@H](C)O)C(=O)N[C@@H](C)C(=O)N[C@@H]([C@@H](C)O)C(=O)N1)[C@@H](C)O)C(C)C)C(=O)N[C@@H](CC(C)C)C(=O)N1CCC[C@H]1C(=O)N1CCC[C@H]1C(=O)N[C@H](C(=O)N[C@@H](CC(N)=O)C(=O)N[C@H](C(=O)NCC(=O)N[C@@H](CO)C(=O)N[C@@H](CC(N)=O)C(=O)N[C@H](C(=O)N[C@@H](Cc1ccc(O)cc1)C(N)=O)[C@@H](C)O)C(C)C)[C@@H](C)O [Peptide 33] (H-K([γGlu-C18 diacid])KCNTATCATQRLA[Dab]FLVHSSNNFGPILPPTNVGSNTY-NH2; disulfide 3-8; N-terminus assumed)	26	598	15800	>144
CC[C@H](C)[C@H](NC(=O)[C@@H]1CCCN1C(=O)CNC(=O)[C@H](Cc1ccccc1)NC(=O)[C@H](CC(N)=O)NC(=O)[C@H](CC(N)=O)NC(=O)[C@H](CO)NC(=O)[C@H](CO)NC(=O)[C@H](Cc1c[nH]cn1)NC(=O)[C@@H](NC(=O)[C@H](CC(C)C)NC(=O)[C@H](Cc1ccccc1)NC(=O)[C@H](CC(N)=O)NC(=O)[C@H](C)NC(=O)[C@H](CC(C)C)NC(=O)[C@H](CCCNC(=N)N)NC(=O)[C@H](CCC(N)=O)NC(=O)[C@@H](NC(=O)[C@H](C)NC(=O)[C@@H]1CSSC[C@H](NC(=O)[C@@H](N)CCCCNC(=O)CC[C@H](NC(=O)CCCCCCCCCCCCCCCCC(=O)O)C(=O)O)C(=O)N[C@@H](CC(N)=O)C(=O)N[C@@H]([C@@H](C)O)C(=O)N[C@@H](C)C(=O)N[C@@H]([C@@H](C)O)C(=O)N1)[C@@H](C)O)C(C)C)C(=O)N[C@H](CC(C)C)C(=O)N1CCC[C@H]1C(=O)N1CCC[C@H]1C(=O)N[C@H](C(=O)N[C@@H](CC(N)=O)C(=O)N[C@H](C(=O)NCC(=O)N[C@@H](CO)C(=O)N[C@@H](CC(N)=O)C(=O)N[C@H](C(=O)N[C@@H](Cc1ccc(O)cc1)C(N)=O)[C@@H](C)O)C(C)C)[C@@H](C)O [Peptide 103, K(γE-C18diacid)[CNTATC]ATQRLANFLVHSSNNFGPI(dL)PPTNVGSNTY-amide] (H-K([γGlu-C18 diacid])CNTATCATQRLANFLVHSSNNFGPI[dL]PPTNVGSNTY-NH2; disulfide 2-7; N-terminus assumed)	12	161	1880	<5
CC[C@H](C)[C@H](NC(=O)[C@@H]1CCCN1C(=O)CNC(=O)[C@H](Cc1ccccc1)NC(=O)[C@H](CC(N)=O)NC(=O)[C@H](CC(N)=O)NC(=O)[C@H](CO)NC(=O)[C@H](CO)NC(=O)[C@H](Cc1c[nH]cn1)NC(=O)[C@@H](NC(=O)[C@H](CC(C)C)NC(=O)[C@H](Cc1ccccc1)NC(=O)[C@H](CC(N)=O)NC(=O)[C@H](C)NC(=O)[C@H](CC(C)C)NC(=O)[C@H](CCCNC(=N)N)NC(=O)[C@H](CCC(N)=O)NC(=O)[C@@H](NC(=O)[C@H](C)NC(=O)[C@@H]1CSSC[C@H](NC(=O)[C@@H](N)CCCCNC(=O)CC[C@H](NC(=O)CCCCCCCCCCCCCCCCC(=O)O)C(=O)O)C(=O)N[C@@H](CC(N)=O)C(=O)N[C@@H]([C@@H](C)O)C(=O)N[C@@H](C)C(=O)N[C@@H]([C@@H](C)O)C(=O)N1)[C@@H](C)O)C(C)C)C(=O)N[C@@H](CC(C)C)C(=O)N1CCC[C@@H]1C(=O)N1CCC[C@H]1C(=O)N[C@H](C(=O)N[C@@H](CC(N)=O)C(=O)N[C@H](C(=O)NCC(=O)N[C@@H](CO)C(=O)N[C@@H](CC(N)=O)C(=O)N[C@H](C(=O)N[C@@H](Cc1ccc(O)cc1)C(N)=O)[C@@H](C)O)C(C)C)[C@@H](C)O [Peptide 104] (H-K([γGlu-C18 diacid])CNTATCATQRLANFLVHSSNNFGPIL[dP]PTNVGSNTY-NH2; disulfide 2-7; N-terminus assumed)	23	79	1820	<5
CC[C@H](C)[C@H](NC(=O)[C@@H]1CCCN1C(=O)CNC(=O)[C@H](Cc1ccccc1)NC(=O)[C@H](CC(N)=O)NC(=O)[C@H](CC(N)=O)NC(=O)[C@H](CO)NC(=O)[C@H](CO)NC(=O)[C@H](Cc1c[nH]cn1)NC(=O)C(C)(C)NC(=O)[C@H](CC(C)C)NC(=O)[C@H](Cc1ccccc1)NC(=O)[C@H](CCN)NC(=O)[C@H](C)NC(=O)[C@H](CC(C)C)NC(=O)[C@H](CCCNC(=N)N)NC(=O)[C@H](CCC(N)=O)NC(=O)[C@@H](NC(=O)[C@H](C)NC(=O)[C@@H]1CSSC[C@H](NC(=O)[C@H](CCCCN)NC(=O)[C@@H](N)CCCCNC(=O)CC[C@H](NC(=O)CCCCCCCCCCCCCCCCC(=O)O)C(=O)O)C(=O)N[C@@H](CC(N)=O)C(=O)N[C@@H]([C@@H](C)O)C(=O)N[C@@H](C)C(=O)N[C@@H]([C@@H](C)O)C(=O)N1)[C@@H](C)O)C(=O)N[C@@H](CC(C)C)C(=O)N1CCC[C@H]1C(=O)N1CCC[C@H]1C(=O)N[C@H](C(=O)N[C@@H](CCC(=O)O)C(=O)N[C@H](C(=O)NCC(=O)N[C@@H](CO)C(=O)N[C@@H](CC(N)=O)C(=O)N[C@H](C(=O)N[C@@H](Cc1ccc(O)cc1)C(N)=O)[C@@H](C)O)C(C)C)[C@@H](C)O [Peptide 156] (H-K([γGlu-C18 diacid])KCNTATCATQRLA[Dab]FL[Aib]HSSNNFGPILPPTEVGSNTY-NH2; disulfide 3-8)	22.3	3750	83800	>144
